Data set [1] is described as follows: method code SF-AS, from DOI: 10.1139/y89-042, PMID: 2547502. Particulars: pH 7.4.
Data set [2] in a line: method code SF-HPLC, from DOI: 10.1023/a:1007522626070, PMID: 10714611. Particulars: pH 7.4.
The nature of data set [3]: method code SF-AS, from DOI: 10.1248/cpb.39.1217.
Data set [4] in a line: method code SF-CR+AS, from Korenman, I.; Tishchenko, M.; Kombarova, A. (1977). Distribution of dihydroxynaphthalenes between higher alcohols and water. Zh. Prikl. Khim., 50(4)899-901. To be noted: pH 2.0.
Test in data set [5]: not given
The source holds these as a separate data set.

Test in data set [6]: not given
The source holds these as a separate data set.

Data set [7] is described as follows: method code SF-AS, from DOI: 10.1016/0005-2744(69)90103-x, PMID: 4387594.
A short description of data set [8]: method code SF, from DOI: 10.1021/ac00105a018.
Data set [9] can be described thus: method code SF-AS, from DOI: 10.1016/s0006-2952(02)01074-2, PMID: 12392818. Particulars: pH 7.4.
Test in data set [10]: not given
The source holds these as a separate data set.

Data set [11] in a line: method code SF-CR+AS, from Korenman, I.; Lineva, S.; Gezikova, N. (1978). Extraction of naphthol-sulfonic acids from aqueous solution. Zh. Prikl. Khim., 51(4)869-871.
Data set [12] is described as follows: method code SF-AS, from DOI: 10.1002/jhrc.1240040906. Particulars: pH 5.0.
A short description of data set [13]: method code SF-AS, from DOI: 10.1081/jlc-100100410. To be noted: pH 4.0.
Data set [14] can be described thus: method code SF-AS, from PMID: 6692390. To be noted: pH 4.0.
A short description of data set [15]: method code SF-AS, from Korenman, Y.; Pazynin, T. (1972). Distribution of nitrosonaphthols between organic solvents and water. J. anal. chem. USSR, 27(4)723-725. To be noted: pH 2.0.
A short description of data set [16]: from Villegas-Navarro, A.; Rodriguez, M. (1984). Structure-activity relationships between quinone moieties and inhibition of sodium transport. In Kuchar, M. (Ed.) QSAR in Design of Bioactive Compounds. ….
Data set [17] in a line: method code SF-AS, from DOI: 10.1021/jm00297a026, PMID: 5441130.
Test in data set [18]: not given
The source holds these as a separate data set.

Test in data set [19]: not given
This is another data set of the same source.

The nature of data set [20]: method code SF, from DOI: 10.1016/0378-5173(90)90261-2. To be noted: pH 3.0.
Test in data set [21]: not given
This is another data set of the same source.

The nature of data set [22]: method code SF-HPLC, from DOI: 10.1016/0378-5173(85)90011-0.
Test in data set [23]: not given
The source holds these as a separate data set.

Data set [24] is described as follows: method code SF, from DOI: 10.1023/a:1018952108327, PMID: 7855051. To be noted: pH 5.0.
Test in data set [25]: not given
The source holds these as a separate data set.

The nature of data set [26]: method code SF, from DOI: 10.1248/cpb.42.1525, PMID: 7923475.
A short description of data set [27]: method code SF, from DOI: 10.1021/jm00002a007, PMID: 7830268.
Test in data set [28]: not given
The source holds these as a separate data set.

Data set [29] in a line: method code SF-AS, from DOI: 10.1002/chin.198419165, PMID: 6653771. Particulars: pH 2.5.
Data set [30] can be described thus: method code SF-AS, from DOI: 10.1016/0378-5173(82)90005-9. To be noted: pH 3.0.
Data set [31] in a line: method code …, from Korenman, I.; Polumestnaya, I.; Mezentseva, P. (1979). Investigations of the relationship of extraction of 1-naphthol and some of its derivatives by the method of correlation equations. Zh. Prikl. …. Particulars: pH 2.0.
The nature of data set [32]: method code SF-AS, from DOI: 10.1081/jlc-100101494.
The conditions of data set [33]: pH 4.3.
Data set [34] is described as follows: method code SF-RC, from DOI: 10.1016/j.apradiso.2013.03.021, PMID: 23602704. To be noted: pH 7.4.
Test in data set [35]: not given
The source holds these as a separate data set.

Test in data set [36]: not given
The source holds these as a separate data set.

Data set [37] can be described thus: method code SF-RC, from DOI: 10.1002/jlcr.1525.
Data set [38] in a line: method code SF-AS, from DOI: 10.1002/jps.2600711105. Particulars: pH 7.4.
Data set [39] can be described thus: method code SF-AS, from DOI: 10.1021/jf60220a002.
The nature of data set [40]: method code SF-AS, from DOI: 10.1016/0039-9140(66)80126-1, PMID: 18959847. To be noted: pH 7.5.
Data set [41] in a line: method code SF-CR, from PMID: 15170. To be noted: pH 3.0.
Data set [42] can be described thus: method code SF, from Korenman, I.; Polumestnaya, I. (1982). Principles of interfacial distribution of certain substituted naphthalenes. Zh. Prikl. Khim., 55(2)364-367.
Data set [43] can be described thus: method code SF, from DOI: 10.1246/bcsj.60.4357.
Data set [44] is described as follows: method code SF-AS, from DOI: 10.1080/10826079508009280. To be noted: pH 7.0.
Data set [45] is described as follows: method code SF-HPLC, from DOI: 10.1016/0378-5173(84)90193-5. Particulars: pH 4.0.
The nature of data set [46]: method code SF-GLC, from DOI: 10.1016/j.chemosphere.2004.08.061, PMID: 15519382.

The compound `O=c1[nH]c(-c2ccccc2)nc2nn[nH]c12` gave a logP of 1.27.
In turn, `Nc1ncnc2c1nc(Br)n2[C@@H]1O[C@@H]2COP(=O)(O)O[C@H]2[C@H]1O` had a logD in [1] of -2.44.
For `CCn1nnc(C2=CCC[N+](C)([O-])C2)n1` (configuration not stated), the logD in [2] is -1.5.
Regarding `Cc1nccnc1CC(C)C`, the logP in [3] stood at 1.96.
In data set [4], `Oc1cc(O)c2ccccc2c1` gave a logD of 1.97.
`Clc1ccc2ccccc2c1`: the logP in data set [5] was determined as 4.07.
Consider `OC[C@@H]1C[C@@H](F)[C@H](n2cnc3c(F)ncnc32)O1`, for which the logP in data set [6] turned out to be 0.06.
The compound `CCCNc1ccccc1` came in with a logP in [7] of 2.45.
For `CCCc1ccc(O)cc1`, the logP in data set [8] came out at 3.
In the case of `OC1CCOc2ccccc21` (configuration not stated), in [9], the logD came out at 1.31.
For the compound `CCCCC1C(=O)NC(=O)N(C)C1=O` (configuration not stated), in data set [10], the logP is 1.1.
In [11], `O=S(=O)(O)c1cccc2c(O)cccc12` registered a logP of -0.17.
Take `NC(=O)c1cnc2n(c1=O)CCCC2`: the logD in data set [12] was -0.38.
`Nc1ccc(S(=O)(=O)Nc2ccc(Cl)nn2)cc1`: in data set [13], the logD is 0.86.
Consider `COc1ccc(NC(=O)N(C)N=O)cc1`, for which the logD in data set [14] amounted to 0.64.
`O=Nc1c(O)ccc2ccccc12` gave a logD in data set [15] of 2.28.
With `CC1=CC(=O)C(C(C)C)=CC1=O`, in [16], the logP was 2.2.
As for `CCCCn1cnc2c(N)ncnc21`, in [17], the logP came to 1.25.
`ClC1=C(Cl)C2(Cl)C3C(Cl)C=CC3C1(Cl)C2(Cl)Cl` (configuration not stated) returned a logP in data set [18] of 5.58.
In the case of `Cc1cn([C@H]2O[C@@H](CO)[C@H](O)[C@H]2F)c(=O)[nH]c1=O`, the logP in data set [19] is -0.51.
`O=C(O)CCCc1ccccc1` returned a logD in data set [20] of 2.32.
For the compound `COc1ccc(NC(=O)C2CC2)cn1`, the logP in [21] was found to be 1.57.
`CCCC(=O)n1ncc2c(=O)[nH]cnc21` registered a logP in data set [22] of 0.85.
Take `NC1CC1c1ccccc1` (configuration not stated): the logP in data set [23] came to 1.49.
As for `CN1C(CCl)Nc2cc(Cl)c(S(N)(=O)=O)cc2S1(=O)=O` (configuration not stated), the logD in data set [24] stood at 0.6.
In turn, `O=C(O)CNC(=O)OCc1ccccc1` registered a logP in [25] of 1.47.
Compound `CCCC(=O)c1ccccc1` gave a logP in data set [26] of 2.66.
Regarding `CCOP(=O)(OCC)C1(C)CCC=[N+]1[O-]` (configuration not stated), in data set [27], the logP was -1.22.
In turn, `Nc1ccc([N+](=O)[O-])c2ccccc12` gave a logP in [28] of 1.77.
`O=C(O)c1ccccc1NCCO` registered a logD in data set [29] of 1.16.
For the compound `O=C1NC(=S)NC(=O)C12CCCCC2`, the logD in [30] worked out at 1.78.
Take `O=Nc1c(Br)cc2ccccc2c1O`: the logD in [31] worked out at 2.93.
As for `CC1(Br)C(=O)NC(=O)N2C3CC(N=[N+]=[N-])C(COC21)O3` (configuration not stated), the logP in data set [32] was 1.11.
Compound `Nc1ccc(S(=O)(=O)Nc2ncccn2)cc1` came in with a logD in data set [33] of -0.04.
Consider `Nc1nc(=O)n([C@H]2C[C@H](O)[C@@H](CO)O2)cc1I`, for which the logD in data set [34] was -0.94.
Compound `CC(=O)Nc1ccc(OC(=O)CBr)cc1` returned a logP in data set [35] of 1.08.
In turn, `Clc1ccc2ccc(Cl)cc2c1` returned a logP in data set [36] of 4.81.
Regarding `O=C(O)CN(CCN1CCN=C1[N+](=O)[O-])CC(=O)O`, in [37], the logP was -0.82.
For `CC(=O)c1nc([N+](=O)[O-])n(CC(C)O)c1C` (configuration not stated), the logD in [38] was 0.37.
On to `CCOP(N)(=O)O/N=C(/C#N)c1ccccc1` (configuration not stated), for which the logP in data set [39] was 0.72.
`Cc1ccc2cccc(O)c2n1`: the logD in data set [40] was 2.33.
In data set [41], `CCc1nnc(NS(=O)(=O)c2ccc(N)cc2)s1` registered a logD of 1.01.
Regarding `O=S(=O)(O)c1cc(O)c2ccccc2c1`, the logP in data set [42] is -0.18.
With `CC(C)c1cc([N+](=O)[O-])cc([N+](=O)[O-])c1O`, in data set [43], the logP turned out to be 3.1.
Consider `Nc1nc(Cl)nc2c1ncn2[C@@H]1O[C@H](CO)[C@@H](O)[C@@H]1F`, for which the logD in data set [44] stood at 0.5.
For `O=c1[nH]cc(F)c(=O)n1Oc1ccccc1`, the logD in data set [45] was 0.8.
For `Cn1c(Cl)c(Br)c(Cl)c1-c1c(Br)c(Br)c(Cl)n1C`, in data set [46], the logP was found to be 6.5.

These data come from the SangsterLogP compilation.
